“Also recorded” adds a separate entry of the source.
How the values were obtained:
Assay type in all cases: cell-based
[1] = system: A549/ATCC; experiment: NCI DTP human tumor cell line screen (SRB); settings: Non-Small Cell Lung Cancer, 10 μM, 48 h
Summary of the method: (§1)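 Cells plated and preincubated 24 h at 37 °C, 5% CO2, then exposed to compound at 10 μM final for 48 h. Adherent cells fixed with cold TCA, stained with SRB, absorbance read at 515 nm. Percent growth derived from time-zero (Tz), control (C) and treated (Ti) readings.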

[2] = system: DU-145; experiment: NCI DTP human tumor cell line screen (SRB); settings: Prostate Cancer, 10 μM, 48 h
Summary of the method: as §1

[3] = system: IGROV1; experiment: NCI DTP human tumor cell line screen (SRB); settings: Ovarian Cancer, 10 μM, 48 h
Summary of the method: as §1

[4] = system: RXF 393; experiment: NCI DTP human tumor cell line screen (SRB); settings: Renal Cancer, 10 μM, 48 h
Summary of the method: as §1

[5] = system: Molt-4 human leukemia cells; experiment: Cell count of Molt-4 human leukemia cells over time; settings: FIG. 11; [ART-Phe-Sal]=10 mM, [DHA]=10 μM, [ART-Tf]=12 μM; cells counted at different times
Procedure: Molt-4-lymphoblastoid cells were purchased from the American Type Culture Collection (Rockville, Md.). They are acute lympoblastic leukemia cells from human peripheral blood. Cultures were maintained in RPMI-1640 (Gibco, Long Island, N.Y.) supplemented with 10% fetal bovine serum (Hyclone, New Haven, Conn.). Cells were cultured at 37° C. in 5% CO2/95% air and 100% humidity, and were split 1:2 at a concentration of approximately 1×10^6/mL. Approximate cell numbers before experiment were between 150×10^3 to 300×10^3 per mL.
FIG. 11 compares the effects of ART-Phe-Sal, DHA, and artemisinin-tagged holotransferrin (ART-Tf) on Molt-4 human leukemia cell.

[6] = system: DAOY medulloblastoma cells; experiment: DAOY medulloblastoma cells, MTT assay and light microscopy
Procedure: The compound ART-Phe-Sal was tested on DAOY medulloblastoma cells using the MTT assay. DAOY Medulloblastoma cells (5,000 cells/200 μL) was seeded on a 96 well plate and incubated for 24 h at 37° C. Cell culture medium was removed after 24 h and 150 μL of medium with treatment was added. Each experimental treatment had holo-Tf (20 μg/well). Treatment assay was viewed under light microscope after 24 h.
Treatment medium was removed after 48 h, and 100 μL of cell medium was added. MTT Reagent (10 μL, 12 mM) was added to each well. This solution was incubated at 37° C. for 4 h. Isopropanol (100 μL) was added to each well to lyse the cells, which were then incubated at 4° C. for 30 m. After incubation each well was plunged (3×200 μL) to ensure the cells were lysed. The incubated medium with MTT reagent was then centrifuged at 13,000 RPM in an eppendorph centrifuge for 3 minutes at room temperature. 100 μL of supernatant was read in a plate reader at λ=570 nm. FIG. 13 compares the effect of dihydroartemisinin (DHA) and ART-Phe-Sal on DAOY medulloblastoma cell line. The concentration of holo-Tf was 1.7 μM.

Compound	Growth Percent [1] [%]	Growth Percent [2] [%]	Growth Percent [3] [%]	Growth Percent [4] [%]	effect on Molt-4 human leukemia cells (cell count, words) [5]	activity against DAOY medulloblastoma cells ([6]; FIG. 13, MTT assay, 48 h treatment, holo-Tf 1.7 μM)	cell shrinkage under light microscope ([6]; after 24 h treatment, each treatment had holo-Tf (20 μg/well))
Cc1ncc(CO)c(C=NNC(=O)c2ccc(COC3OC4OC5(C)CCC6C(C)CCC(C3C)C46OO5)cc2)c1O (stereo not shown) [ART-Phe-Pyridoxal, N′-(5-hydroxy-3-hydroxymethyl-2-methyl-4-pyridylidene)-4-(dihydroxyartemisinin-methyl)-phenyl carbohydrazide]	26.36	−9.65	1.58	35.07	–	–	–
CC1CCC2C(C)C(OCc3ccc(C(=O)NN=Cc4ccccc4O)cc3)OC3OC4(C)CCC1C32OO4 (stereo not shown) [ART-Phe-Sal, N′-(2-hydroxybenzylidene)-4-(dihydroxyartemisinin-methyl)-phenyl carbohydrazide]	–	–	–	–	can effectively kill human leukemia cells; also recorded: more potent than either dihydroartemisinin (DHA) or artemisinin-tagged holotransferrin (ART-Tf)	active against DAOY medulloblastoma cells	Moderate cell shrinkage
